Laboratory results reported in PMC11111955, “Safety and efficacy evaluation of halicin as an effective drug for inhibiting intestinal infections” (Frontiers in Pharmacology, 2024).
In brackets after ≈: the same amount, converted by molar mass.

Columns and labels:
[1] = test system: Salmonella typhimurium strains TA97, TA98, TA100, and WP2uvrApKM101; test: Ames test, all strains as summarised in the text
MRSA (ATCC 43300) = test: Minimum inhibitory concentration (MIC); assay type: cell-based, Staphylococcus aureus
Salmonella (CVCC 3377) = test: Growth kinetics curve; conditions: 1/2 × to 4 × MIC

## Nc1nnc(Sc2ncc([N+](=O)[O-])s2)s1 [halicin]
[1]; 22.5 μg/plate, due to antibacterial effect
  bacterial counts of the four strains: significantly decreased
[1]; concentrations below 11.2 μg/plate, with or without S9
  mutagenicity in the Ames test: non-mutagenic
MRSA (ATCC 43300)
  MIC: 8 µg/mL (≈ 30.6 µM)
Salmonella (CVCC 3377)
  growth in growth kinetics curve assay: completely inhibited
